Activity calls are given as the source filed them. The rule behind the calls is not given here.

Drawing on ChEMBL document CHEMBL1128007, “Synthesis of a galactose-fucose disaccharide mimic of sialyl Lewis X” (Bioorg Med Chem Lett, 1994), this text covers Activity for three compounds.

This assay has as its target T1, E-selectin (Homo sapiens) (UniProt P16581).
T1 sequence (whole entry): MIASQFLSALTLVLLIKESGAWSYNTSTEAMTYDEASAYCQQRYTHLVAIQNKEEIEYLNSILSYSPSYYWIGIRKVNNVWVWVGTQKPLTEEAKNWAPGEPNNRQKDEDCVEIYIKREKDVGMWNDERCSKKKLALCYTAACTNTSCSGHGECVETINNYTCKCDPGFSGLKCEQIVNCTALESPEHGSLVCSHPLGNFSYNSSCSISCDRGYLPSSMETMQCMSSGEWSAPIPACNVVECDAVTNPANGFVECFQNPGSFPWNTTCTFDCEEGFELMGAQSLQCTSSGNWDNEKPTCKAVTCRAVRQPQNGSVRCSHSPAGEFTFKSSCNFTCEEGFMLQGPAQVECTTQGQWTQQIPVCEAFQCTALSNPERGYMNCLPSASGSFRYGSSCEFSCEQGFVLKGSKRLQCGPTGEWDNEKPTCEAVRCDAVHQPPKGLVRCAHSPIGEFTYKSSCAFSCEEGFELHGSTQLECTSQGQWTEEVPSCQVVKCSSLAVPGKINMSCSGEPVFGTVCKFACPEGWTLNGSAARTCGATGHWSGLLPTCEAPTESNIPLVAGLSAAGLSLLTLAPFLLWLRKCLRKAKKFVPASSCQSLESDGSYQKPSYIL
Nature of the assay: Compound was tested at 0.05-100 mM concentration to inhibit ca++ mediated binding of HL-60 cells to Selectin E adsorbed onto a multi-well plate; Active. The class given is cell-based.
Consider `COC1OC(C)C(O)(CC(=O)CCCOC2(C(=O)O)CC(O)C(NC(C)=O)C([C@@H](O)[C@H](O)CO)O2)C(O)C1O` (stereo partly drawn), for which the result was Active. Under `CC(=O)N[C@H]1[C@H]([C@H](O)[C@H](O)CO)O[C@@](O[C@H]2[C@@H](O)[C@@H](CO)O[C@@H](O[C@@H]([C@H](O[C@@H]3O[C@@H](C)[C@@H](O)[C@@H](O)[C@@H]3O)[C@H](C=O)NC(C)=O)[C@H](O)CO)[C@@H]2O)(C(=O)O)C[C@@H]1O` stands “Active”. As for `CC1OC(OCCOC2CC(CO)C(O)C(OCC(=O)O)C2O)C(O)C(O)C1O` (stereo not drawn), the result was Active.
